Assay results taken from US10251408B2, “Catechin function enhancement method” (KYUSHU UNIVERSITY, NATIONAL UNIVERSITY CORPORATION, priority 2014, dated 2019).

Legend:
[1] = test system: 3-hydroxy-3-methylglutaryl-CoA synthase (HMCGS); assay: Liver HMCGS mRNA by real-time PCR in HF/HS diet-fed mice; format: in vivo, mouse; settings: HF/HS diet-fed C57BL/6J mice; Yabukita 0.2% and/or eriodictyol 0.45 g/kg diet; 8 weeks; FIG. 6
From the text: (§1) Male C57BL/6J mice at 12 weeks of age were preliminarily kept for 1 week and then divided into 5 groups such that the average body weight was equal in all groups, i.e., a control (AIN-93G-based diet) group, a HF/HS (high-fat high-sucrose diet) group, a Yabukita (0.2%) (HF/HS+Yabukita) group, an eriodictyol (HF/HS+eriodictyol) group, and a Yabukita+eriodictyol (HF/HS+Yabukita+eriodictyol) group. A feed supplemented with Yabukita (0.2%) and eriodictyol (0.45 g/kg diet) was given to the mice. The feed was given in an amount of 4 g/day and the mice were kept for 8 weeks under ad libitum drinking conditions. After being fasted for 16 hours, the mice were sacrificed by abdominal aortic puncture under isoflurane anesthesia. […] Yabukita and eriodictyol were examined for their effect on cholesterol metabolism-related gene expression in the liver of high-fat high-sucrose diet-fed obese model mice. C57BL/6J mice were preliminarily kept for 1 week and then divided into the respective groups such that the average body weight was equal in all groups. Each feed was given in an amount of 4 g/day and the mice were kept for 8 weeks under ad libitum drinking conditions. After being fasted for 16 hours, the mice were sacrificed by abdominal aortic puncture under isoflurane anesthesia.

[2] = test system: tail suspension test-induced disuse amyotrophy in mice; assay: Tail suspension test-induced disuse amyotrophy (quadriceps femoris weight); format: in vivo, mouse; settings: C57BL/6J mice; 5 mg/kg intragastric once a day; tail suspension for 10 days from day 7; FIG. 4
Description: Male C57BL/6J mice at 12 weeks of age were divided into 5 groups such that the average body weight was equal in all groups, i.e., a GR (ground) group, a TS (tail suspension) group, an EGCG group, an eriodictyol group, and an EGCG+eriodictyol group. From the beginning of grouping, the GR and TS groups received physiological saline, the EGCG group received EGCG and the eriodictyol group received eriodictyol (5 mg/kg) by intragastric administration, while the EGCG+eriodictyol group received EGCG and eriodictyol (5 mg/kg) by intragastric administration through a sonde. For 7 days from the beginning of grouping, all the groups were kept under normal conditions, and the TS, EGCG, eriodictyol, and EGCG+eriodictyol groups were then subjected to a tail suspension test. After the tail suspension test for 10 days (at 17 days after initiation of the experiment), all the mice were sacrificed by abdominal aortic puncture under isoflurane anesthesia, and the quadriceps femoris was excised from each mouse and measured for its weight. Each sample was administered daily throughout the experimental period. […] At 10 days after starting the tail suspension test, the mice were sacrificed by abdominal aortic puncture under isoflurane anesthesia, and the quadriceps femoris was excised from each mouse and measured for its weight.

[3] = test system: low density lipoprotein receptor (LDLR); assay: Liver LDLR mRNA by real-time PCR in HF/HS diet-fed mice; format: in vivo, mouse; settings: HF/HS diet-fed C57BL/6J mice; Yabukita 0.2% and/or eriodictyol 0.45 g/kg diet; 8 weeks; FIG. 6
From the text: as §1

[4] = test system: Human multiple myeloma cell line U266; assay: Cancer cell death induction, viable cells by trypan blue assay (96-well plate, FIG. 9); format: cell-based; settings: 96 hours, in combination with EGCG, EGCG 3″Me or green tea extract
Description: Human multiple myeloma cell line U266 was subcultured and maintained in RPMI 1640 medium supplemented with 10% FCS under conditions of 37° C. and water vapor-saturated 5% CO2. The cells were maintained in the logarithmic growth phase. The RPMI 1640 medium used for culture was prepared as follows: per liter of ultrapure water, RPMI 1640 medium (10.4 g), HEPES (2.38 g), injectable penicillin G potassium (100,000 units), streptomycin sulfate injectable (100 mg) and NaHCO3 (2.0 g) were suspended and then filter-sterilized.
The lemon peel extract used in the experiment was prepared as follows. Peels (100 g) were collected with a grater from 6 lemons and 100% EtOH (100 mL) was added thereto, followed by mashing with a mortar. The mashed mixture was further strained through gauze to remove fibers and then filtered by gravity using a #1 paper filter and a funnel to remove precipitates, followed by centrifugation at 12000×g to collect the supernatant. The resulting ethanol extract of lemon was evaporated with an evaporator to volatilize the solvent, thereby obtaining an ethanol-extracted lemon fraction. This ethanol-extracted lemon fraction was dissolved again in DMSO to give a lemon extract. […] After culture, viable cells were counted by trypan blue assay.
To evaluate the effect of combined use of EGCG or a structural analog thereof or an EGCG-containing naturally occurring product and eriodictyol or a structural analog thereof or an eriodictyol-containing naturally occurring product, human multiple myeloma cell line U266 was adjusted to 5×10^4 cells/mL and seeded in a 96-well plate, and then cultured for 96 hours in the presence of EGCG and eriodictyol added at a final concentration of 5 μM each. After culture for 96 hours, viable cells were counted by trypan blue assay.

O=C1C[C@@H](c2ccc(O)c(O)c2)Oc2cc(O)cc(O)c21 [eriodictyol]
mRNA expression level of HMCGS in the liver [1]: no effect
effect on amyotrophy (quadriceps femoris weight) [2]: no effect on amyotrophy
mRNA expression level of LDLR in the liver [3]: no effect
enhancement of the anticancer effect (viable cells) of EGCG, EGCG 3″Me or a green tea extract [4]: remarkably enhance the anticancer effect
